# Experimental data: PubChem BioAssay (NCI)
#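 Five compound concentrations were applied to cells in 96-well plates for 48 hours; endpoints were derived by simple linear interpolation of the resulting dose-response curve. Abbreviation: GI50, concentration required for 50% inhibition of growth. TGI denotes the concentration required for complete inhibition of growth.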
# What was measured:
# Assay in all cases: DTP human tumour cell line panel, 48 h
# [1] = test system: HCT-15 colon
# [2] = test system: UACC-257 melanoma
# [3] = test system: CAKI-1 renal
# [4] = test system: SNB-19 CNS
# [5] = test system: RPMI-8226 leukemia
# [6] = test system: SNB-75 CNS
# [7] = test system: SN12C renal
# [8] = test system: NCI-H226 lung
# [9] = test system: SW-620 colon
# [10] = test system: U251 CNS
# [11] = test system: IGROV1 ovarian
# [12] = test system: MDA-MB-435
# [13] = test system: BT-549 breast
# [14] = test system: NCI-H522 lung
# [15] = test system: SF-268 CNS
# [16] = test system: OVCAR-5 ovarian
# [17] = test system: TK-10 renal
# [18] = test system: PC-3 prostate
# [19] = test system: LOX IMVI melanoma
# [20] = test system: CCRF-CEM leukemia
# [21] = test system: SR leukemia
# [22] = test system: DU-145 prostate
# [23] = test system: HOP-92 NSCLC
# [24] = test system: T-47D breast
# [25] = test system: HS 578T breast
# [26] = test system: OVCAR-4 ovarian
# [27] = test system: HOP-62 NSCLC
# [28] = test system: SF-539 CNS
# [29] = test system: HT29 colon
# [30] = test system: A498 renal
# [31] = test system: EKVX NSCLC
# [32] = test system: M14 melanoma
# [33] = test system: HL-60(TB) leukemia
# [34] = test system: RXF 393 renal
# [35] = test system: UACC-62 melanoma
# [36] = test system: MOLT-4 leukemia
# [37] = test system: UO-31 renal
# [38] = test system: A549 NSCLC
# [39] = test system: 786-0 renal
# [40] = test system: OVCAR-8 ovarian
# [41] = test system: COLO 205 colon
# [42] = test system: OVCAR-3 ovarian
# [43] = test system: MCF7 breast
# [44] = test system: NCI-H23 lung
# [45] = test system: KM12 colon
# [46] = test system: ACHN renal
# [47] = test system: SK-OV-3 ovarian
# [48] = test system: MALME-3M melanoma
# [49] = test system: MDA-MB-468 breast
# [50] = test system: SK-MEL-28 melanoma
# [51] = test system: HCT-116 colon
# [52] = test system: HCC-2998 colon
# [53] = test system: K-562 leukemia
# [54] = test system: SK-MEL-5 melanoma
# [55] = test system: SK-MEL-2 melanoma
# [56] = test system: MDA-MB-231 breast
# [57] = test system: NCI-H460 lung
# [58] = test system: SF-295 CNS
compound,measurement,setting,value
CC1CCCCN1CCCNC(=O)N/C(N)=N/c1nc2ccccc2s1 (stereo unspecified),GI50,[1],16.4 µM
same,TGI,[1],33.4 µM
same,GI50,[2],15.8 µM
same,TGI,[2],30.7 µM
same,GI50,[3],13.3 µM
same,TGI,[3],28 µM
same,GI50,[4],29.7 µM
same,TGI,[4],> 100 µM
same,GI50,[5],17.4 µM
same,TGI,[5],51.3 µM
same,GI50,[6],7.4 µM
same,TGI,[6],55.2 µM
same,GI50,[7],36.7 µM
same,TGI,[7],> 100 µM
same,GI50,[8],27.7 µM
same,TGI,[8],> 100 µM
same,GI50,[9],16.2 µM
same,TGI,[9],34.1 µM
same,GI50,[10],17 µM
same,TGI,[10],39.3 µM
same,GI50,[11],21.3 µM
same,TGI,[11],76.7 µM
same,GI50,[12],16.2 µM
same,TGI,[12],30.2 µM
same,GI50,[13],16.5 µM
same,TGI,[13],59.3 µM
same,GI50,[14],18.3 µM
same,TGI,[14],43.8 µM
same,GI50,[15],21.1 µM
same,TGI,[15],79.8 µM
same,GI50,[16],22.5 µM
same,TGI,[16],68.5 µM
same,GI50,[17],20.8 µM
same,TGI,[17],46 µM
same,GI50,[18],20 µM
same,TGI,[18],> 100 µM
same,GI50,[19],13.9 µM
same,TGI,[19],27.7 µM
same,GI50,[20],19.6 µM
same,TGI,[20],57.8 µM
same,GI50,[21],18.7 µM
same,TGI,[21],58.5 µM
same,GI50,[22],46.7 µM
same,TGI,[22],> 100 µM
same,GI50,[23],4.96 µM
same,TGI,[23],41.6 µM
same,GI50,[24],15.4 µM
same,TGI,[24],39.6 µM
same,GI50,[25],15.1 µM
same,TGI,[25],50.1 µM
same,GI50,[26],63.1 µM
same,TGI,[26],> 100 µM
same,GI50,[27],21.3 µM
same,TGI,[27],> 100 µM
same,GI50,[28],15.8 µM
same,TGI,[28],30.1 µM
same,GI50,[29],15.3 µM
same,TGI,[29],46.2 µM
same,GI50,[30],17 µM
same,TGI,[30],38.2 µM
same,GI50,[31],27.9 µM
same,TGI,[31],> 100 µM
same,GI50,[32],15.8 µM
same,TGI,[32],30.5 µM
same,GI50,[33],11.5 µM
same,TGI,[33],33.8 µM
same,GI50,[34],10.2 µM
same,TGI,[34],33.3 µM
same,GI50,[35],16.8 µM
same,TGI,[35],31.7 µM
same,GI50,[36],12.1 µM
same,TGI,[36],51.9 µM
same,GI50,[37],10.2 µM
same,TGI,[37],25.2 µM
same,GI50,[38],21 µM
same,TGI,[38],57.7 µM
same,GI50,[39],17.2 µM
same,TGI,[39],32.7 µM
same,GI50,[40],27.5 µM
same,TGI,[40],> 100 µM
same,GI50,[41],14 µM
same,TGI,[41],28.2 µM
same,GI50,[42],24 µM
same,TGI,[42],> 100 µM
same,GI50,[43],15 µM
same,TGI,[43],31.7 µM
same,GI50,[44],27 µM
same,TGI,[44],> 100 µM
same,GI50,[45],27 µM
same,TGI,[45],> 100 µM
same,GI50,[46],19.1 µM
same,TGI,[46],48.1 µM
same,GI50,[47],19.7 µM
same,TGI,[47],89.1 µM
same,GI50,[48],13.9 µM
same,TGI,[48],27.1 µM
same,GI50,[49],14.7 µM
same,TGI,[49],30.7 µM
same,GI50,[50],16.6 µM
same,TGI,[50],30.5 µM
same,GI50,[51],15 µM
same,TGI,[51],28.9 µM
same,GI50,[52],15.2 µM
same,TGI,[52],29.2 µM
same,GI50,[53],15.8 µM
same,TGI,[53],46.7 µM
same,GI50,[54],13.3 µM
same,TGI,[54],26.2 µM
same,GI50,[55],16 µM
same,TGI,[55],31.1 µM
same,GI50,[56],14.8 µM
same,TGI,[56],40.7 µM
same,GI50,[57],19.1 µM
same,TGI,[57],40.6 µM
same,GI50,[58],16 µM
same,TGI,[58],30.7 µM
